Results reported in US20140088298A9, “CONJUGATES COMPRISING HYDROXYALKYL STARCH AND A CYTOTOXIC AGENT AND PROCESS FOR THEIR PREPARATION” (Fresenius Kabi Deutschland GmbH, priority 2010, published 2014).

What was measured:
Format in all cases: in vivo, NMRI:nu/nu mice
[1] = Body weight change as sign for toxicity, mouse tumor model MT-3; settings: for Toxic deaths (at day): n=8
Experimental: (§1) Tumor growth inhibition was used as therapeutic parameter. Additionally, body weight change was determined as signs for toxicity (particularly, potential hematological or gastrointestinal side effects).
(§2) Individual body weights of mice were determined twice weekly and mean body weight per group was related to the initial value in percent (body weight change, BWC), see tables in appendix.
(§3) Descriptive statistics was performed on the data of body weight and tumor volume. […] Statistical evaluation was performed with the U-test of Mann and Whitney with a significance level of p<0.05, using the Windows program […] 6.
(§4) Tables 18 to 24 summarize the results for the tested Docetaxel conjugates and the reference compound Taxotere®. […] The loss of body weight is known to be an indicator of gastro-intestinal and hepatotoxicity of the tested compound.

[2] = Body weight change as sign for toxicity, mouse tumor model PC3; settings: Table 20, PC3; maximum body weight loss; conjugates 1 x 75 mg/kg day 6; Docetaxel 5 mg/kg days 6-10
Experimental: as §1
Descriptive statistics was performed on the data of body weight and tumor volume. […] 6.

[3] = Body weight change as sign for toxicity, mouse tumor model A549; settings: Table 21, A549; maximum body weight loss; conjugates 1 x 75 mg/kg day 8; Docetaxel 5 mg/kg days 8-12
Experimental: as §1, §2, §3, §4

Compound | Toxic deaths (at day) ([1]; Table 18, MT-3, conjugates 1 x 100 mg/kg i.v. day 7, Docetaxel 10 mg/kg days 7, 9, 11) | Toxic death (at day) ([1]; Table 23, MT-3, conjugates 1 x 75 mg/kg day 7, Docetaxel 5 mg/kg days 7-11) | BWC [%] (at day) [2] | BWC [%] (at day) [3] | Toxic deaths (at day) ([1]; Table 25, MT-3, conjugates 1 x 100 mg/kg day 7, Paclitaxel 12.5 mg/kg days 7-9, 10 mg/kg days 10-11) | Toxic deaths (at day) ([1]; Table 26, MT-3, conjugates 1 x 80 mg/kg day 10, Paclitaxel 10 mg/kg days 10-14)
CC(=O)O[C@@]12CO[C@@H]1C[C@H](O)[C@@]1(C)C(=O)[C@H](O)C3=C(C)[C@@H](OC(=O)[C@H](O)[C@@H](NC(=O)OC(C)(C)C)c4ccccc4)C[C@@](O)([C@@H](OC(=O)c4ccccc4)[C@H]21)C3(C)C [Taxotere, Docetaxel] | 4 | 0 | −14 | −5 |  | 
CC(=O)O[C@H]1C(=O)[C@@]2(C)[C@H]([C@H](OC(=O)c3ccccc3)[C@]3(O)C[C@H](OC(=O)[C@H](O)[C@@H](NC(=O)c4ccccc4)c4ccccc4)C(C)=C1C3(C)C)[C@]1(OC(C)=O)CO[C@@H]1C[C@@H]2O [Paclitaxel] |  |  |  |  | 1 | 0
